# What was measured:
# [1] = system: cytochrome P450; assay: in vitro inhibition of cytochrome P450 activity; format: biochemical
# [2] = system: cytochrome P450; assay: in vivo activity (inhibition of cytochrome P450 activity)
inhibition of cytochrome P450 activity [1],SMILES,in vivo activity compared with 10-undecinyl acid [2]
comparably high inhibition,"C#CCCCCCCCCC(C)(C)C(=O)O [2,2-dimethyl-11-dodecinyl acid]",far superior in vivo
comparably high inhibition,C#CCCCCCCCCC(=O)O [10-undecinyl acid],

# Source: patent US20100028417A1, “USE OF SUBSTITUTED GLYCERIN DERIVATIVES FOR PRODUCING A PHARMACEUTICAL PREPARATION” (priority 2006, published 2010)
